In publication PMC8706149 (International Journal of Molecular Sciences, 2021):
Converted amounts (≈) assume the structure as drawn. Read-outs that look alike come from different tables or passages of the source. Marks after values point to notes of the source that are not given here. Bridge positions count the residues as written; N and C are the ends. Square brackets hold non-standard residues; d marks the D form. Peptide text beside a SMILES is read from it. * marks the point of attachment. X1 = CC[C@H](C)CCCCC(=O)*; Dab = NCC[C@H](N)C(=O)O

How the values were obtained:
[1] = tested on: Escherichia coli ATCC 25922; assay type: cell-based; details: positive control antibiotic; Nutrient Broth 0.5x, overnight 37°C
Protocol: (§1) All the labeled peptide after purification were lyophilized and dissolved in water. Purity was veri-fi e d by RP-HPLC on C18 column . Pepti de i dentity was assessed by mass spectrometry anal yses (Supplementary Methods, section S4; Table S1).
(§2) S6. Antimicrobial activity assay
(§3) MIC (Minimum Inhibitory Concentration) analyses were performed by broth microdilution method for antimicrobial peptides previously described wi th mi nor modi ficati ons. In detai l s, assays were carried out in Nutrient Broth 0.5x (Difco, Detroit, MI, US A ) usi ng st e r i le 96-well polypropylene mi-croti ter pl ates (cat. 3879, C ostar C orp., C ambri dge, MA , US A ). Bacterial strains were grown in Luria-Bertani (LB) medium overnight at 37°C and then diluted in Nutrient Broth at a final concentration of ~5x10^5 CFU/mL per well. Twofold serial dilutions of peptides were carried out in the test wells […]
(§4) Plates were incubated overnight at 37°C. MIC value was taken as the lowest concentration at which growth was inhibited. Three independent experiments we r e performed for each MIC value. […] MIC values were measured on Gram-negative ( E scherichia coli ATCC 25922) and Gram-po si t i ve st r ains (Sta phyl o co ccus a ure us ATCC 6538P and Bacillus globigii TNO BMO13) . […]

[2] = cited from earlier work; for pKa of the phenolic group of luciferin: ground state
Text: Excited states are indicated by an asterisk. (C) Condensation reaction between 6-substituted 2-cyanobenzothiazoles and cysteine (free or as N-terminal residue of a peptide). R1 and R2 can be a wide variety of alkyl and acyl groups.

[3] = Photostability under constant excitation; assay type: physicochemical; details: 60 min constant excitation at maximum absorption (Figure S3)
Text: As comparative control, we used the very photostable fluorophore PyMPO [33] by treating PyMPO-(C)GKY20 in the same conditions.

[4] = tested on: Bacillus globigii TNO BMO13; test: MIC, broth microdilution; assay type: cell-based; details: Bacillus subtilis, TNOBMO13, read-out: MIC (µg/mL) Bacillus globigii TNO BMO13
Protocol: as §1, §2, §3, §4

Molecule: CC[C@H](C)CCCCC(=O)N[C@@H](CCN)C(=O)N[C@H](C(=O)N[C@@H](CCN)C(=O)N[C@H]1CCNC(=O)[C@H]([C@@H](C)O)NC(=O)[C@H](CCN)NC(=O)[C@H](CCN)NC(=O)[C@H](CC(C)C)NC(=O)[C@@H](Cc2ccccc2)NC(=O)[C@H](CCN)NC1=O)[C@@H](C)O [Polymyxin B, polymyxin B] (X1-[Dab]T[Dab][Dab][Dab][dF]L[Dab][Dab]T; lactam 4-C (inferred); N-terminus assumed)
- MIC (µg/mL) Escherichia coli 25922 ATCC [1]: 0.5 µg/mL (≈ 0.415 µM)

Molecule: O=C(O)[C@H]1CSC(c2nc3ccc(O)cc3s2)=N1 [Free Luc, luciferin]
- pKa of the phenolic group of luciferin [2]: 8.70 ^b
- pKa of the phenolic group of luciferin ([2]; listed as LUC-OH): 8.7
- pKa of the phenolic group of luciferin ([2]; listed as Luc): ≈ 8.7
- pKa of light-induced dissociation (excited state) of luciferin ([2]; photoacid, excited state): < 1

Molecule: 1-[2-(maleimido)ethyl]-4-[5-(4-methoxyphenyl)-2-oxazolyl]pyridinium-labeled GKY20 [PyMPO-(C)GKY20]
- loss of initial fluorescence [3]: 43%

Molecule: CN[C@H](CC(C)C)C(=O)N[C@H]1C(=O)N[C@@H](CC(N)=O)C(=O)N[C@H]2C(=O)N[C@H]3C(=O)N[C@H](C(=O)N[C@H](C(=O)O)c4cc(O)cc(O)c4-c4cc3ccc4O)[C@H](O)c3ccc(c(Cl)c3)Oc3cc2cc(c3O[C@@H]2O[C@H](CO)[C@@H](O)[C@H](O)[C@H]2O[C@H]2C[C@](C)(N)[C@H](O)[C@H](C)O2)Oc2ccc(cc2Cl)[C@H]1O [Vancomycin, vancomycin]
- MIC [4]: 2 µg/mL (≈ 1.38 µM)
